Results taken from BindingDB's records for doi:10.7270/Q2CZ35ND (Burnham Center For Chemical Genomics, 2011).

Molecular target: DNA dC->dU-editing enzyme APOBEC-3A (Homo sapiens, UniProt P31941)
Assay: APOBEC3A DNA deaminase inhibitors, dose response, biochemical (AID 504722)
Conditions: 25 °C

Sequence of DNA dC->dU-editing enzyme APOBEC-3A (P31941 whole entry): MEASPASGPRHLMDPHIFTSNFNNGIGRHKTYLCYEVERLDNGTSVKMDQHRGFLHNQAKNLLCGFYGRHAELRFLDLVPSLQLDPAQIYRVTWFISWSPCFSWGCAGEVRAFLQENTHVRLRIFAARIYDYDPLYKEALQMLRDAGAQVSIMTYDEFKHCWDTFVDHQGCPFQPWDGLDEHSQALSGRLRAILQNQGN

SMILES | IC50
OCC12C=CC(O1)c1c2c(O)n(-c2ccccc2-c2ccccc2)c1O (stereo not drawn) [7-(hydroxymethyl)-2-(2-phenylphenyl)-4,7a-dihydro-3aH-octahydro-1H-4,7-epoxyisoindole-1,3-dione] | > 100 µM
COc1ccc(-n2c(O)cc(Sc3nnc(-c4ccccc4)[nH]3)c2O)cc1 [1-(4-methoxyphenyl)-3-[(5-phenyl-1H-1,2,4-triazol-3-yl)thio]pyrrolidine-2,5-dione] | > 100 µM
CCOc1ccc(-n2c(O)cc(Sc3nnc(-c4ccccc4)[nH]3)c2O)cc1 [MLS000765380] | > 100 µM
